Data on five compounds can be found in paper PMC9230573 (Frontiers in Pharmacology, 2022).

The target of assay [1] is human CaV2.2 (α1B, β3, α2δ1) (Homo sapiens, UniProt Q00975). Kind of assay: cell-based.
The target of assay [2] is rat α3β2 nAChR (Rattus norvegicus, UniProt P04757+P12390). In words: cell-based.

The structures appear in SMILES notation. pIC50: −log10 of the molar value. Where a SMILES comes first, the peptide text is derived from it. Bridges are numbered along the chain shown (N, C = ends). Bounds are passed on as bounds.

rat α3β2 nAChR, sequence (P04757 26-499 limits assumed): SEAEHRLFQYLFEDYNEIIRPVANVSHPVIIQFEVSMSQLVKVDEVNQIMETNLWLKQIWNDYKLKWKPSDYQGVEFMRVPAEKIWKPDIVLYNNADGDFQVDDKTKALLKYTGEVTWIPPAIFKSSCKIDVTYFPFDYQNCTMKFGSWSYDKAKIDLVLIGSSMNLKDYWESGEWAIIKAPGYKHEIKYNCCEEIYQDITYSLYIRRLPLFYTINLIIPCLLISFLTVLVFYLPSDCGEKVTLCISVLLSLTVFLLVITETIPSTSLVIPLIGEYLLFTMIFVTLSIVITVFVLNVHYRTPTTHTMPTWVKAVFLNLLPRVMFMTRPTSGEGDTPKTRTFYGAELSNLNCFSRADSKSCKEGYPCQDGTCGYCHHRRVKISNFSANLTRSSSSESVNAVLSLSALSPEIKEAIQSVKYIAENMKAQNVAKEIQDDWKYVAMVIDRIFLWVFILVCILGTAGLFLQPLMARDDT
rat α3β2 nAChR, sequence (P12390 25-500 limits assumed): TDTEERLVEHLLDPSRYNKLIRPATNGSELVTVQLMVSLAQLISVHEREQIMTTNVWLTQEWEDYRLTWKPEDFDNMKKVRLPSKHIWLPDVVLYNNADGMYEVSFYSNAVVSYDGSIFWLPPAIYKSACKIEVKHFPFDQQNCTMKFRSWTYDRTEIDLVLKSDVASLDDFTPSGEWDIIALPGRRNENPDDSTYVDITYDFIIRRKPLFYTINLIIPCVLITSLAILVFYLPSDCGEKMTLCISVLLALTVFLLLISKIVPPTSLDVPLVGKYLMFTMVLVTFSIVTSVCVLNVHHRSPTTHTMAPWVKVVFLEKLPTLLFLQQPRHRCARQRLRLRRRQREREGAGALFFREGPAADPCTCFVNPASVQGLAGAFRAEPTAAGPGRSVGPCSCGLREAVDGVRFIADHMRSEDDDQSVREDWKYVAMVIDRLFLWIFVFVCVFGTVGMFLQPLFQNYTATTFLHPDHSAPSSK
human CaV2.2 (α1B, β3, α2δ1), sequence (Q00975 whole entry, looked up): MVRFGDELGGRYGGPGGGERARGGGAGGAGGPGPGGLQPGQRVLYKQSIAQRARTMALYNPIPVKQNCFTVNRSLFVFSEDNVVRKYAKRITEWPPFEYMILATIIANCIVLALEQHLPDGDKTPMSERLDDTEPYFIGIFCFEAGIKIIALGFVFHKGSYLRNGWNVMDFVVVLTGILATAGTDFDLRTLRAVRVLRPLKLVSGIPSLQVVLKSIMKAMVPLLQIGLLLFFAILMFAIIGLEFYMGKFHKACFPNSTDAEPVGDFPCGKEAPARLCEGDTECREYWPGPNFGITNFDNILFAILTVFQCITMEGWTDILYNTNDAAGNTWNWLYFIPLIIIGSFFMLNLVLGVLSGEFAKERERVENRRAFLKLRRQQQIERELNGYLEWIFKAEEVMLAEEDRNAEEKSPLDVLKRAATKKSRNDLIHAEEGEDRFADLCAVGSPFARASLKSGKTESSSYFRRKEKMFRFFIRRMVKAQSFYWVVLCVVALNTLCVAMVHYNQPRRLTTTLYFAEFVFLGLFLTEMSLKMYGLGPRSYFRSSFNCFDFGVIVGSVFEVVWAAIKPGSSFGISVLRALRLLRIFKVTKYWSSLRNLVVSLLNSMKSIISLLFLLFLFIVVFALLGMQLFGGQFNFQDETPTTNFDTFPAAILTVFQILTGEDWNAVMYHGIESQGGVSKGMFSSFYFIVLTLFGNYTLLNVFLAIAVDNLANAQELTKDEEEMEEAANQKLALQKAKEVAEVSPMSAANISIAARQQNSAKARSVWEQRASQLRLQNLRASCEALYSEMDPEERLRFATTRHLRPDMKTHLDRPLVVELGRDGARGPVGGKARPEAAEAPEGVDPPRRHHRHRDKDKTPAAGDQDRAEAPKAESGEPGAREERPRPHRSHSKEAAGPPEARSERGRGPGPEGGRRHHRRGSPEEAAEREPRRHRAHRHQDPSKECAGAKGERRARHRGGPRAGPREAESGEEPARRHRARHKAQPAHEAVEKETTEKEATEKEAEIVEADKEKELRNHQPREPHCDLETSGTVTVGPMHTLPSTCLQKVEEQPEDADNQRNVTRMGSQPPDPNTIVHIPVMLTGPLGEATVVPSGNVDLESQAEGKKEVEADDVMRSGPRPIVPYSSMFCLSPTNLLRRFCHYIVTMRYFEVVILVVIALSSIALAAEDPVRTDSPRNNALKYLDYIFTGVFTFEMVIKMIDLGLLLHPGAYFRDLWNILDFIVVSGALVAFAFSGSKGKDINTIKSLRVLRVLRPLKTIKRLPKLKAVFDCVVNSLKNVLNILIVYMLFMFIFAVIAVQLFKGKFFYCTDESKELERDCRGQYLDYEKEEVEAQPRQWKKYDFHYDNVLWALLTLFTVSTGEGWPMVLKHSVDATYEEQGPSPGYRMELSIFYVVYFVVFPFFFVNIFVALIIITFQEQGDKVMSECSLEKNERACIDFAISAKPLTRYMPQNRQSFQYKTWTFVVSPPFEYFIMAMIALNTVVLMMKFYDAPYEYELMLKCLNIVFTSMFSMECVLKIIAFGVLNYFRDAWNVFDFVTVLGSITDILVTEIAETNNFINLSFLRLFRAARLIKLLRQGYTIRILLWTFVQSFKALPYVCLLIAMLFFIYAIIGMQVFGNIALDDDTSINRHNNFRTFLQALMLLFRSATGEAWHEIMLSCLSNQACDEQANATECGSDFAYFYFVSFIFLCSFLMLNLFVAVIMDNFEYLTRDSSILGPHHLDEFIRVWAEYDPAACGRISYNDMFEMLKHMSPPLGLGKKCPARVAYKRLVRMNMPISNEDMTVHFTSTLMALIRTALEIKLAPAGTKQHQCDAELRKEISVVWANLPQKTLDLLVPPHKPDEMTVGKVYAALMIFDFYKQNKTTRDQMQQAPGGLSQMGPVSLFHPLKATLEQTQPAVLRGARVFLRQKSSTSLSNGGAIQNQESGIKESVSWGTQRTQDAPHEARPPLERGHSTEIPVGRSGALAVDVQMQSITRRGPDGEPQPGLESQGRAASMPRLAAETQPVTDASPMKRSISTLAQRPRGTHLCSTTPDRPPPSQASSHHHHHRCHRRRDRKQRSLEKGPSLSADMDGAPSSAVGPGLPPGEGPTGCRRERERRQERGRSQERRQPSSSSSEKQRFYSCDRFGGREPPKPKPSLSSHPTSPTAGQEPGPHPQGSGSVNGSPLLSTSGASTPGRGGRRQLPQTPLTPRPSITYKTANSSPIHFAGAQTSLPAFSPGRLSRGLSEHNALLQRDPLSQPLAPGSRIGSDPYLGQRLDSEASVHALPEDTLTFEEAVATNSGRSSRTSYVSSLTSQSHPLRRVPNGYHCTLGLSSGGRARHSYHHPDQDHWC

Consider `CC[C@H](C)[C@@H]1NC(=O)[C@@H]2CCCN2C(=O)[C@@H]2CSSC[C@H](NC(=O)[C@@H](N)CC(N)=O)C(=O)N[C@@H](CSSC[C@@H](C(N)=O)NC(=O)[C@H](CC(N)=O)NC(=O)[C@H](C)NC(=O)[C@H](CCCNC(=N)N)NC(=O)[C@H](CO)NC(=O)[C@H](Cc3ccc(O)cc3)NC(=O)[C@H](CC(=O)O)NC1=O)C(=O)N[C@@H](CCSC)C(=O)N[C@@H](Cc1ccccc1)C(=O)N[C@@H](Cc1c[nH]cn1)C(=O)N[C@@H]([C@@H](C)O)C(=O)N2` [Vt1.27[F15A]] (H-NCCMFHTCPIDYSRANC-NH2; disulfide 2-8, 3-17), for which the “inhibitory activity at CaV2.2 compared with Vt1.27 (in words; percent inhibition of IBa)” value in assay [1] is listed as “equipotent to the native peptide”. Moreover, in assay [2], the negative-log IC50 (pIC50) is < 5.00 and the “change of potency at the α3β2 nAChR subtype compared with Vt1.27 (in words)” value (“change of potency” for short) was “a decrease in the potency”.

Turning to `CC[C@H](C)[C@@H]1NC(=O)[C@H](C)NC(=O)[C@@H]2CSSC[C@H](NC(=O)[C@@H](N)CC(N)=O)C(=O)N[C@@H](CSSC[C@@H](C(N)=O)NC(=O)[C@H](CC(N)=O)NC(=O)[C@H](Cc3ccccc3)NC(=O)[C@H](CCCNC(=N)N)NC(=O)[C@H](CO)NC(=O)[C@H](Cc3ccc(O)cc3)NC(=O)[C@H](CC(=O)O)NC1=O)C(=O)N[C@@H](CCSC)C(=O)N[C@@H](Cc1ccccc1)C(=O)N1CCC[C@H]1C(=O)N[C@@H]([C@@H](C)O)C(=O)N2` [Vt1.27[H6P、P9A]] (H-NCCMFPTCAIDYSRFNC-NH2; disulfide 2-8, 3-17), in assay [2], the negative-log IC50 (pIC50) is < 5.00 and the “change of potency” value is “a significant loss of potency”.

As to `CC[C@H](C)[C@@H]1NC(=O)[C@H](C)NC(=O)[C@@H]2CSSC[C@H](NC(=O)[C@@H](N)CC(N)=O)C(=O)N[C@@H](CSSC[C@@H](C(N)=O)NC(=O)[C@H](CC(N)=O)NC(=O)[C@H](Cc3ccccc3)NC(=O)[C@H](CCCNC(=N)N)NC(=O)[C@H](CO)NC(=O)[C@H](Cc3ccc(O)cc3)NC(=O)[C@H](CC(=O)O)NC1=O)C(=O)N[C@@H](CCSC)C(=O)N[C@@H](Cc1ccccc1)C(=O)N[C@@H](Cc1c[nH]cn1)C(=O)N[C@@H]([C@@H](C)O)C(=O)N2` [Vt1.27[P9A]] (H-NCCMFHTCAIDYSRFNC-NH2; disulfide 2-8, 3-17), the “inhibitory activity at CaV2.2 compared with Vt1.27 (in words; percent inhibition of IBa)” value in assay [1] is “decrease in inhibitory activity”. In assay [2], the Hillslope is reported as -0.763, the pIC50 is 5.03 and the “change of potency” value is reported as “a sharp decrease in activity”.

As for `CC[C@H](C)[C@@H]1NC(=O)[C@@H]2CCCN2C(=O)[C@@H]2CSSC[C@H](NC(=O)[C@@H](N)CC(N)=O)C(=O)N[C@@H](CSSC[C@@H](C(N)=O)NC(=O)[C@H](CC(N)=O)NC(=O)[C@H](Cc3ccccc3)NC(=O)[C@H](C)NC(=O)[C@H](CO)NC(=O)[C@H](Cc3ccc(O)cc3)NC(=O)[C@H](CC(=O)O)NC1=O)C(=O)N[C@@H](CCSC)C(=O)N[C@@H](Cc1ccccc1)C(=O)N[C@@H](Cc1c[nH]cn1)C(=O)N[C@@H]([C@@H](C)O)C(=O)N2` [Vt1.27[R14A]] (H-NCCMFHTCPIDYSAFNC-NH2; disulfide 2-8, 3-17), in assay [2], the Hillslope was -0.871, the pIC50 is 5.54 and the “change of potency” value is on record as “a decrease in the potency”.

On to `CC[C@H](C)[C@@H]1NC(=O)[C@@H]2CCCN2C(=O)[C@@H]2CSSC[C@H](NC(=O)[C@@H](N)CC(N)=O)C(=O)N[C@@H](CSSC[C@@H](C(N)=O)NC(=O)[C@H](CC(N)=O)NC(=O)[C@H](Cc3ccccc3)NC(=O)[C@H](CCCNC(=N)N)NC(=O)[C@H](CO)NC(=O)[C@H](C)NC(=O)[C@H](CC(=O)O)NC1=O)C(=O)N[C@@H](CCSC)C(=O)N[C@@H](Cc1ccccc1)C(=O)N[C@@H](Cc1c[nH]cn1)C(=O)N[C@@H]([C@@H](C)O)C(=O)N2` [Vt1.27[Y12A]] (H-NCCMFHTCPIDASRFNC-NH2; disulfide 2-8, 3-17), for which, in assay [2], the Hillslope is -1.577, the pIC50 was 5.59 and the “change of potency” value was “a decrease in the potency”.
